Common to all, as to experiment: relative viability (nuclei count vs DMSO), 5 days (fraction); higher = more cells survive
Compound in the assay “MLN4924 + Trametinib”: NS(=O)(=O)OC[C@@H]1C[C@@H](n2ccc3c(N[C@H]4CCc5ccccc54)ncnc32)C[C@@H]1O [MLN4924] + CC(=O)Nc1cccc(-n2c(=O)n(C3CC3)c(=O)c3c(Nc4ccc(I)cc4F)n(C)c(=O)c(C)c32)c1 [Trametinib] (partner 0.02 µM)
Put shortly: (§1)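 Lung cancer cell lines, seeded in 1536-well plates, were treated the following day by pin tool with a single drug or with five library-drug doses (not always all listed) in √10 steps on top of a fixed anchor-drug dose. Cells were fixed and nuclei stained in one step after 5 days, and nuclei were counted. Relative viability is the nuclei count for treated wells divided by that for vehicle wells, reported as medians of duplicate plates.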

Compound in the assay “Carboplatin + Pictilisib”: C1CC(C1)(C(=O)O)C(=O)O.[NH2-].[NH2-].[Pt+2] [Carboplatin] + CS(=O)(=O)N1CCN(Cc2cc3nc(-c4cccc5[nH]ncc45)nc(N4CCOCC4)c3s2)CC1 [Pictilisib] (partner 1 µM)
Put shortly: as §1

Compound in the assay “MLN4924 + Palbociclib”: NS(=O)(=O)OC[C@@H]1C[C@@H](n2ccc3c(N[C@H]4CCc5ccccc54)ncnc32)C[C@@H]1O [MLN4924] + CC(=O)c1c(C)c2cnc(Nc3ccc(N4CCNCC4)cn3)nc2n(C2CCCC2)c1=O [Palbociclib] (partner 0.5 µM)
The method, boiled down:
as §1

Compound in the assay “MLN4924 + AZD7762”: NS(=O)(=O)OC[C@@H]1C[C@@H](n2ccc3c(N[C@H]4CCc5ccccc54)ncnc32)C[C@@H]1O [MLN4924] + NC(=O)Nc1cc(-c2cccc(F)c2)sc1C(=O)N[C@H]1CCCNC1 [AZD7762] (partner 0.2 µM)
Put shortly:
as §1

Take NCI-H520: the relative viability in the assay with MLN4924 + Trametinib (first compound 0.04 µM) stood at 0.527; with MLN4924 + Trametinib (first compound 0.1265 µM) it was 0.396; in the assay with MLN4924 + Trametinib (first compound 0.4 µM) it was 0.346; with MLN4924 + Trametinib (first compound 1.265 µM), 0.149; with MLN4924 + Trametinib (first compound 4 µM), 0.168; in the assay with Carboplatin + Pictilisib (first compound 0.08 µM) it was 0.357. The relative viability in the assay with Carboplatin + Pictilisib (first compound 0.253 µM) amounted to 0.227; with Carboplatin + Pictilisib (first compound 0.8 µM), 0.27; with Carboplatin + Pictilisib (first compound 2.53 µM), 0.297; with Carboplatin + Pictilisib (first compound 8 µM), 0.258; in the assay with MLN4924 + Palbociclib (first compound 0.04 µM), 0.224; with MLN4924 + Palbociclib (first compound 0.1265 µM), 0.226. For the same cell line, the relative viability worked out at 0.153 with MLN4924 + Palbociclib (first compound 0.4 µM), 0.145 with MLN4924 + Palbociclib (first compound 1.265 µM) and 0.156 in the assay with MLN4924 + Palbociclib (first compound 4 µM).

For the cell line NCI-H522, the relative viability in the assay with MLN4924 + AZD7762 (first compound 0.04 µM) was determined as 0.919; with MLN4924 + AZD7762 (first compound 0.1265 µM), 0.69; with MLN4924 + AZD7762 (first compound 0.4 µM) it was 0.588; with MLN4924 + AZD7762 (first compound 1.265 µM) it was 0.353; with MLN4924 + AZD7762 (first compound 4 µM), 0.383; with MLN4924 + Trametinib (first compound 0.04 µM), 0.638. Further, the relative viability is 0.696 with MLN4924 + Trametinib (first compound 0.1265 µM); 0.691 in the assay with MLN4924 + Trametinib (first compound 0.4 µM); 0.314 in the assay with MLN4924 + Trametinib (first compound 1.265 µM); 0.386 in the assay with MLN4924 + Trametinib (first compound 4 µM); 0.835 with MLN4924 + Palbociclib (first compound 0.04 µM); 0.693 in the assay with MLN4924 + Palbociclib (first compound 0.1265 µM). For the same cell line, the relative viability stood at 0.741 with MLN4924 + Palbociclib (first compound 0.4 µM), 0.348 in the assay with MLN4924 + Palbociclib (first compound 1.265 µM) and 0.37 with MLN4924 + Palbociclib (first compound 4 µM).

For the cell line NCI-H596, the relative viability with MLN4924 + AZD7762 (first compound 0.04 µM) came to 1.04; with MLN4924 + AZD7762 (first compound 0.1265 µM) it was 1.22; with MLN4924 + AZD7762 (first compound 0.4 µM), 1.06; with MLN4924 + AZD7762 (first compound 1.265 µM), 1.15; in the assay with MLN4924 + AZD7762 (first compound 4 µM), 1.19; with MLN4924 + Trametinib (first compound 0.04 µM), 0.799. In addition, the relative viability with MLN4924 + Trametinib (first compound 0.1265 µM) was 0.833; with MLN4924 + Trametinib (first compound 0.4 µM), 0.727; with MLN4924 + Trametinib (first compound 1.265 µM) it was 0.649; with MLN4924 + Trametinib (first compound 4 µM), 0.443; with Carboplatin + Pictilisib (first compound 0.08 µM), 0.455; with Carboplatin + Pictilisib (first compound 0.253 µM), 0.36. Besides, the relative viability with Carboplatin + Pictilisib (first compound 0.8 µM) amounted to 0.389; in the assay with Carboplatin + Pictilisib (first compound 2.53 µM), 0.333; in the assay with Carboplatin + Pictilisib (first compound 8 µM), 0.373.

For NCI-H661, the relative viability with MLN4924 + Trametinib (first compound 0.04 µM) came out at 0.714; in the assay with MLN4924 + Trametinib (first compound 0.1265 µM), 0.712; with MLN4924 + Trametinib (first compound 0.4 µM) it was 0.475; with MLN4924 + Trametinib (first compound 1.265 µM), 0.277; with MLN4924 + Trametinib (first compound 4 µM), 0.353; with Carboplatin + Pictilisib (first compound 0.08 µM), 0.431. Moreover, the relative viability with Carboplatin + Pictilisib (first compound 0.253 µM) amounted to 0.393; with Carboplatin + Pictilisib (first compound 0.8 µM) it was 0.368; with Carboplatin + Pictilisib (first compound 2.53 µM), 0.34; with Carboplatin + Pictilisib (first compound 8 µM), 0.402; with MLN4924 + Palbociclib (first compound 0.04 µM), 0.421; in the assay with MLN4924 + Palbociclib (first compound 0.1265 µM) it was 0.427. The relative viability turned out to be 0.34 with MLN4924 + Palbociclib (first compound 0.4 µM), 0.292 with MLN4924 + Palbociclib (first compound 1.265 µM) and 0.366 in the assay with MLN4924 + Palbociclib (first compound 4 µM).

On to NCI-H1299, for which the relative viability in the assay with Carboplatin + Pictilisib (first compound 0.08 µM) was 0.785; with Carboplatin + Pictilisib (first compound 0.253 µM) it was 0.663; with Carboplatin + Pictilisib (first compound 0.8 µM), 0.62; with Carboplatin + Pictilisib (first compound 2.53 µM) it was 0.739; with Carboplatin + Pictilisib (first compound 8 µM), 0.617.

In the case of NCI-H1563, the relative viability was 0.733 in the assay with Carboplatin + Pictilisib (first compound 0.08 µM); 0.664 with Carboplatin + Pictilisib (first compound 0.253 µM); 0.639 in the assay with Carboplatin + Pictilisib (first compound 0.8 µM); 0.629 with Carboplatin + Pictilisib (first compound 2.53 µM); 0.657 with Carboplatin + Pictilisib (first compound 8 µM).
